How the values were obtained:
[1] = molecular target: T1, MCT13 (SLC16A13), untagged, co-expressed with CD147 (Homo sapiens, UniProt Q7RTY0); experiment: inhibition of cephradine uptake in transfected HEK293T cells, LC-MS/MS; assay type: cell-based; details: HEK-293T; read-out: % inhibition at 10 mM
T1 construct: untagged full-length MCT13, transiently co-transfected with CD147 in HEK293T cells; with Basigin
T1 sequence (Q7RTY0 1-426): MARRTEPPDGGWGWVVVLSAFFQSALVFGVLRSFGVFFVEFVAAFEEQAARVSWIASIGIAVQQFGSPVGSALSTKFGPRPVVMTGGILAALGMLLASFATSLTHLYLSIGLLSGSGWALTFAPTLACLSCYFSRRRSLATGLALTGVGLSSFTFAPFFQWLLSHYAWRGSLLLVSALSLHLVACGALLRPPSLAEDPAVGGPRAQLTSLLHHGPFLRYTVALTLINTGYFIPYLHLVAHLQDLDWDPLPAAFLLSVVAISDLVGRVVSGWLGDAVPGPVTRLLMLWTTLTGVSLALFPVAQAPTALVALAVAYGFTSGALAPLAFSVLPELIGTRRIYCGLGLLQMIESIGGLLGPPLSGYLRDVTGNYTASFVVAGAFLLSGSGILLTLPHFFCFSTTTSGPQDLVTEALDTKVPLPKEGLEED
T1 sequence (P35613 22-385 partner): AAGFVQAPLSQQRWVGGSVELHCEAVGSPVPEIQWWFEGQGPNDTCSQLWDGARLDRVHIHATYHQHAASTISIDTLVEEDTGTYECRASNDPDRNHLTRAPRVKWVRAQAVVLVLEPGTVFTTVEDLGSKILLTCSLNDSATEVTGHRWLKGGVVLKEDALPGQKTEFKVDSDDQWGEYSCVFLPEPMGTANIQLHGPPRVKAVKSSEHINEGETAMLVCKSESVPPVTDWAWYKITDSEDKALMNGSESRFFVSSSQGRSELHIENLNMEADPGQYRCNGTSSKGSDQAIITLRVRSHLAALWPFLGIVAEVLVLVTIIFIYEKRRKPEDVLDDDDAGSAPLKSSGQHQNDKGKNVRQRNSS

[2] = molecular target: T1, MCT13 (SLC16A13), untagged, co-expressed with CD147; experiment: as above; assay type: cell-based; details: 1 mM cephradine, KCl buffer, 5 min, mock subtracted
[3] = molecular target: T1, MCT13 (SLC16A13), untagged, co-expressed with CD147; experiment: as above; assay type: cell-based; details: 1 mM cephradine, KCl buffer with 1% DMSO, 5 min, mock subtracted
[4] = substrate: CC1=C(C(=O)O)N2C(=O)[C@@H](NC(=O)[C@H](N)C3=CCC=CC3)[C@H]2SC1; experiment: uptake in transfected HEK293T cells, LC-MS/MS; assay type: cell-based, Homo sapiens

## Cc1nnc(SCC2=C(C(=O)O)N3C(=O)[C@@H](NC(=O)Cn4cnnn4)[C@H]3SC2)s1 [Cephazolin]
[1]
  inhibition at 10000 µM: 43%

## CCCN(CCC)S(=O)(=O)c1ccc(C(=O)O)cc1 [Probenecid]
[2]
  % of control at 10 mM: Probenecid and rifampicin, which are typical inhibitors of organic anion transporters

## N[C@@H](CCC(=O)N[C@@H](CS)C(=O)NCC(=O)O)C(=O)O [glutathione]
[1]
  inhibition at 10000 µM: 30%

## CO[C@H]1/C=C/O[C@@]2(C)Oc3c(C)c(O)c4c(O)c(c(/C=N/N5CCN(C)CC5)c(O)c4c3C2=O)NC(=O)/C(C)=C\C=C\[C@H](C)[C@H](O)[C@@H](C)[C@@H](O)[C@@H](C)[C@H](OC(C)=O)[C@@H]1C [rifampicin]
[3]
  % of control at 50 uM: Probenecid and rifampicin, which are typical inhibitors of organic anion transporters

B1: MCT13 (SLC16A13), untagged, co-expressed with CD147 (Homo sapiens) (protein)
chain: MARRTEPPDGGWGWVVVLSAFFQSALVFGVLRSFGVFFVEFVAAFEEQAARVSWIASIGIAVQQFGSPVGSALSTKFGPRPVVMTGGILAALGMLLASFATSLTHLYLSIGLLSGSGWALTFAPTLACLSCYFSRRRSLATGLALTGVGLSSFTFAPFFQWLLSHYAWRGSLLLVSALSLHLVACGALLRPPSLAEDPAVGGPRAQLTSLLHHGPFLRYTVALTLINTGYFIPYLHLVAHLQDLDWDPLPAAFLLSVVAISDLVGRVVSGWLGDAVPGPVTRLLMLWTTLTGVSLALFPVAQAPTALVALAVAYGFTSGALAPLAFSVLPELIGTRRIYCGLGLLQMIESIGGLLGPPLSGYLRDVTGNYTASFVVAGAFLLSGSGILLTLPHFFCFSTTTSGPQDLVTEALDTKVPLPKEGLEED
notes: untagged full-length MCT13, transiently co-transfected with CD147 in HEK293T cells; with Basigin
[4]; KCl buffer, 0.1-30 mM cephradine, co-expressed CD147
  Km: 2.83 ± 0.63 mM

B2: EGFP-tagged MCT13 (with CD147) (Homo sapiens) (protein)
chain: MARRTEPPDGGWGWVVVLSAFFQSALVFGVLRSFGVFFVEFVAAFEEQAARVSWIASIGIAVQQFGSPVGSALSTKFGPRPVVMTGGILAALGMLLASFATSLTHLYLSIGLLSGSGWALTFAPTLACLSCYFSRRRSLATGLALTGVGLSSFTFAPFFQWLLSHYAWRGSLLLVSALSLHLVACGALLRPPSLAEDPAVGGPRAQLTSLLHHGPFLRYTVALTLINTGYFIPYLHLVAHLQDLDWDPLPAAFLLSVVAISDLVGRVVSGWLGDAVPGPVTRLLMLWTTLTGVSLALFPVAQAPTALVALAVAYGFTSGALAPLAFSVLPELIGTRRIYCGLGLLQMIESIGGLLGPPLSGYLRDVTGNYTASFVVAGAFLLSGSGILLTLPHFFCFSTTTSGPQDLVTEALDTKVPLPKEGLEED
notes: EGFP-tagged (pEGFP-C1) full-length MCT13, co-transfected with CD147 in HEK293T cells; with Basigin
[4]; EGFP-tagged MCT13
  Km: 3.95 ± 0.53 mM

Reference: PMC10458055, “Monocarboxylate Transporter 13 (MCT13/SLC16A13) Functions as a Novel Plasma Membrane Oligopeptide Transporter” (Nutrients, 2023)
